Results reported in patent US20160193216A1 (Nimbus Iris, Inc., priority 2012, published 2016).

What follows are molecules tested against T1, IRAK4 (Homo sapiens, UniProt Q9NWZ3) (assay: IRAK-4 activity inhibition assay (Caliper)). Conditions: 37 μM ATP, 3.5 nM IRAK4.
T1 sequence (Q9NWZ3 1-460): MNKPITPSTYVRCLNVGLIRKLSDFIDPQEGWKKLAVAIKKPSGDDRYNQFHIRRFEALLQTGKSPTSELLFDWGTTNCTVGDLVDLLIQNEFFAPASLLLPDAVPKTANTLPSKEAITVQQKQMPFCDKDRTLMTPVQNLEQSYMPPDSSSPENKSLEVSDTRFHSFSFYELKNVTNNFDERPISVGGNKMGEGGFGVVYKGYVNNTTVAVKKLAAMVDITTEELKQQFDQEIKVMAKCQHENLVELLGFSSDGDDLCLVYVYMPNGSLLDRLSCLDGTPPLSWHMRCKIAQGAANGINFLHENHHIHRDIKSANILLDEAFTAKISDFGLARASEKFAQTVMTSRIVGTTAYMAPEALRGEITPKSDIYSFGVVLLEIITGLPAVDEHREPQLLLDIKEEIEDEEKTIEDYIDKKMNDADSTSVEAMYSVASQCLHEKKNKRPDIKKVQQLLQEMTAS
Assay type: biochemical

Row | Structure (SMILES) | IC50
1 | CN(CCO)C(=O)CC1CCc2sc3ncnc(N[C@H]4CC[C@H](N(C)C)CC4)c3c21 (stereo partly drawn) [Compound I-30, 2-(12-[[4-(dimethylamino)cyclohexyl]amino]-7-thia-9,11-diazatricyclo[6.4.0.0̂[2,6]]dodeca-1(8),2(6),9,11-tetraen-3-yl)-N-(2-hydroxyethyl)-N-methylacetamide] | 20 to 50 µM
2 | CN(C)[C@H]1CC[C@H](Nc2ncnc3sc4c(c23)C(CC(=O)N2CCCC2)CC4)CC1 (stereo partly drawn) [Compound I-14, 2-(4-(((1r,4r)-4-(dimethylamino)cyclohexyl)amino)-6,7-dihydro-5H-cyclopenta[4,5]thieno[2,3-d]pyrimidin-5-yl)-1-(pyrrolidin-1-yl)ethanone] | > 50 µM
3 | CN(C)[C@H]1CC[C@H](Nc2ncnc3sc4c(c23)C(C(=O)O)CC4)CC1 (stereo partly drawn) [Compound I-5, 4-(((1s,4s)-4-(dimethylamino)cyclohexyl)amino)-6,7-dihydro-5H-cyclopenta[4,5]thieno[2,3-d]pyrimidine-5-carboxylic acid] | 5 to 20 µM
4 | CN(C)[C@H]1CC[C@H](Oc2ncnc3sc4c(c23)[C@@H](CCc2ncco2)CC4)CC1 [Compound I-63, N,N-dimethyl-4-[[(3S)-3-[2-(1,3-oxazol-2-yl)ethyl]-7-thia-9,11-diazatricyclo[6.4.0.0[2,6]]dodeca-1(8),2(6),9,11-tetraen-12-yl]oxy]cyclohexan-1-amine] | < 5 µM
5 | CN(C)[C@H]1CC[C@H](Oc2ncnc3sc4c(c23)[C@@H](CC(O)c2ncco2)CC4)CC1 (stereo in doubt) [Compound I-62, (1S)-2-[(3R)-12-[[4-(dimethylamino)cyclohexyl]oxy]-7-thia-9,11-diazatricyclo[6.4.0.0[2,6]]dodeca-1(8),2(6),9,11-tetraen-3-yl]-1-(1,3-oxazol-2-yl)ethan-1-ol] | < 5 µM
6 | CCOCCC1CCc2sc3ncnc(O[C@H]4CC[C@H](N(C)C)CC4)c3c21 (stereo partly drawn) [Compound I-31, 4-[[3-(2-ethoxyethyl)-7-thia-9,11-diazatricyclo[6.4.0.0[2,6]]dodeca-1(8),2(6),9,11-tetraen-12-yl]oxy]-N,N-dimethylcyclohexan-1-amine] | 5 to 20 µM
7 | CCOC(=O)C1CCc2sc3ncnc(N[C@H]4CC[C@H](N(C)C)CC4)c3c21 (stereo partly drawn) [Compound I-1] | 5 to 20 µM
8 | CN(C)[C@H]1CC[C@H](Nc2ncnc3sc4c(c23)C(CN2CCCC2)CC4)CC1 (stereo partly drawn) [Compound I-10, (1r,4r)-N1,N1-dimethyl-N4-(5-(pyrrolidin-1-ylmethyl)-6,7-dihydro-5H-cyclopenta[4,5]thieno[2,3-d]pyrimidin-4-yl)cyclohexane-1,4-diamine] | 20 to 50 µM
9 | CN(C)[C@H]1CC[C@H](Oc2ncnc3sc4c(c23)[C@@H](C[C@H](O)c2cc[nH]n2)CC4)CC1 [Compound I-96, (S)-2-((R)-4-(((1r,4R)-4-(dimethylamino)cyclohexyl)oxy)-6,7-dihydro-5H-cyclopenta[4,5]thieno[2,3-d]pyrimidin-5-yl)-1-(1H-pyrazol-3-yl)ethanol] | < 5 µM
10 | CN(C)[C@H]1CC[C@H](Nc2ncnc3sc4c(c23)C(C(=O)NCCCO)CC4)CC1 (stereo partly drawn) [Compound I-28, 12-[[4-(dimethylamino)cyclohexyl]amino]-N-(3-hydroxypropyl)-7-thia-9,11-diazatricyclo[6.4.0.0̂[2,6]]dodeca-1(12),2(6),8,10-tetraene-3-carboxamide] | 20 to 50 µM
11 | C[C@]1(N)CC[C@H](Oc2ncnc3sc4c(c23)[C@@H](CC(N)=O)CC4)CC1 [Compound I-161, 2-[(3R)-12-[(4-amino-4-methylcyclohexyl)oxy]-7-thia-9,11-diazatricyclo[6.4.0.0[2,6]]dodeca-1(8),2(6),9,11-tetraen-3-yl]acetamide] | 5 to 20 µM
12 | CC[C@H](O)C[C@H]1CCc2sc3ncnc(N[C@H]4CC[C@H](N(C)C)CC4)c3c21 [Compound I-54] | < 5 µM
13 | CC[C@@H](O)C[C@H]1CCc2sc3ncnc(N[C@H]4CC[C@H](N(C)C)CC4)c3c21 [Compound I-52] | < 5 µM
14 | CN(C)[C@H]1CC[C@H](Nc2ncnc3sc4c(c23)C(CO)CC4)CC1 (stereo partly drawn) [Compound I-3] | < 5 µM
15 | NC(=O)C(=O)C[C@H]1CCc2sc3ncnc(OC4CCC(N5CCOCC5)CC4)c3c21 (stereo partly drawn) [Compound I-213, 3-[(3R)-12-[[4-(morpholin-4-yl)cyclohexyl]oxy]-7-thia-9, 11-diazatricyclo[6.4.0.0[2,6]]dodeca-1(8),2(6),9, 11-tetraen-3-yl]-2-oxopropanamide] | < 5 µM
16 | CN(C)[C@H]1CC[C@H](Oc2ncnc3sc4c(c23)[C@@H](C[C@@H](O)c2cc[nH]n2)CC4)CC1 [Compound I-98, (R)-2-((R)-4-(((1r,4R)-4-(dimethylamino)cyclohexyl)oxy)-6,7-dihydro-5H-cyclopenta[4,5]thieno[2,3-d]pyrimidin-5-yl)-1-(1H-pyrazol-3-yl)ethanol] | < 5 µM
17 | CN(C)[C@H]1CC[C@H](Oc2ncnc3sc4c(c23)C(CC#N)CC4)CC1 (stereo partly drawn) [Compound I-22, 2-(12-[[4-(dimethylamino)cyclohexyl]oxy]-7-thia-9,11-diazatricyclo[6.4.0.0[2,6]]dodeca-1(8),2(6),9,11-tetraen-3-yl)acetonitrile] | 5 to 20 µM
18 | CC[C@]1(N(C)C)CC[C@H](Oc2ncnc3sc4c(c23)[C@@H](CCO)CC4)CC1 [Compound I-91, 2-((R)-4-(((1r,4R)-4-(dimethylamino)-4-ethylcyclohexyl)oxy)-6,7-dihydro-5H-cyclopenta[4,5]thieno[2,3-d]pyrimidin-5-yl)ethanol] | < 5 µM
19 | C[C@@H](O)C[C@H]1CCc2sc3ncnc(O[C@H]4CC[C@H](N(C)C)CC4)c3c21 [Compound I-41, (2R)-1-[(3R)-12-[[4-(dimethylamino)cyclohexyl]oxy]-7-thia-9,11-diazatricyclo[6.4.0.0[2,6]]dodeca-1(8),2(6),9,11-tetraen-3-yl]propan-2-ol] | < 5 µM

Second part, the molecule after the results:

Row | IC50 | Structure (SMILES)
20 | < 5 µM | C[C@@H](O)C[C@H]1CCc2sc3ncnc(O[C@H]4CC[C@H](N5CCOCC5)CC4)c3c21 [Compound I-82, (R)-1-((R)-4-(((1r,4R)-4-morpholinocyclohexyl)oxy)-6,7-dihydro-5H-cyclopenta[4,5]thieno[2,3-d]pyrimidin-5-yl)propan-2-ol]
21 | < 5 µM | CO[C@@H](C[C@H]1CCc2sc3ncnc(O[C@H]4CC[C@H](N(C)C)CC4)c3c21)C(N)=O [Compound I-78, (2S)-3-[(3R)-12-[[4-(dimethylamino)cyclohexyl]oxy]-7-thia-9,11-diazatricyclo[6.4.0.0[2,6]]dodeca-1(8),2(6),9,11-tetraen-3-yl]-2-methoxypropanamide]
22 | < 5 µM | CN(C)[C@H]1CC[C@H](Oc2ncnc3sc4c(c23)[C@@H](CC(=O)NCC(N)=O)CC4)CC1 [Compound I-58, N-(2-amino-2-oxoethyl)-2-((R)-4-(((1r,4R)-4-(dimethylamino)cyclohexyl)oxy)-6,7-dihydro-5H-cyclopenta[4,5]thieno[2,3-d]pyrimidin-5-yl)acetamide]
23 | < 5 µM | C[C@@H]1COCCN1[C@H]1CC[C@H](Oc2ncnc3sc4c(c23)[C@@H](CC(N)=O)CC4)CC1 [Compound I-227, 2-[(3R)-12-([4-[(3R)-3-methylmorpholin-4-yl]cyclohexyl]oxy)-7-thia-9,11-diazatricyclo[6.4.0.0[2,6]]dodeca-1(8),2(6),9, 11-tetraen-3-yl]acetamide]
24 | < 5 µM | NC(=O)C1CCc2sc3ncnc(N[C@H]4CC[C@H](N5CCOCC5)CC4)c3c2C1 (stereo partly drawn) [Compound I-203, 3-[[4-(morpholin-4-yl)cyclohexyl]amino]-8-thia-4,6-diazatricyclo[7.4.0.0[2,7]]trideca-1(9),2,4,6-tetraene-12-carboxamide]
25 | < 5 µM | CN(C)[C@H]1CC[C@H](Oc2ncnc3sc4c(c23)C(CCO)CC4)CC1 (stereo partly drawn) [Compound I-21, 2-(4-(((1r,4r)-4-(dimethylamino)cyclohexyl)oxy)-6,7-dihydro-5H-cyclopenta[4,5]thieno[2,3-d]pyrimidin-5-yl)ethanol]
26 | < 5 µM | NC(=O)C[C@H]1CCc2sc3ncnc(O[C@H]4CC[C@H](N5CCNCC5)CC4)c3c21 [Compound I-131, 2-[(3R)-12-[[4-(piperazin-1-yl)cyclohexyl]oxy]-7-thia-9,11-diazatricyclo[6.4.0.0[2,6]]dodeca-1(12),2(6),8,10-tetraen-3-yl]acetamide]
27 | 20 to 50 µM | COC(=O)N1Cc2sc3ncnc(O[C@H]4CC[C@H](N5CCOCC5)CC4)c3c2C1 [Compound I-199, methyl 12-[[4-(morpholin-4-yl)cyclohexyl]oxy]-7-thia-4,9, 11-triazatricyclo[6.4.0.0[2,6]]dodeca-1(12),2(6),8, 10-tetraene-4-carboxylate]
28 | < 5 µM | NC(=O)[C@@H]1CCc2sc3ncnc(N[C@H]4CC[C@H](N5CCOCC5)CC4)c3c2C1 [Compound I-208, (12R)-3-[[4-(morpholin-4-yl)cyclohexyl]amino]-8-thia-4,6-diazatricyclo[7.4.0.0[2,7]]trideca-1(9),2(7),3,5-tetraene-12-carboxamide]
29 | < 5 µM | NC(=O)C(O)C[C@H]1CCc2sc3ncnc(N[C@H]4CC[C@H](N5CCOCC5)CC4)c3c21 (mixture of isomers) [Compound I-118, 2-hydroxy-3-((R)-4-(((1r,4R)-4-morpholinocyclohexyl)amino)-6,7-dihydro-5H-cyclopenta[4,5]thieno[2,3-d]pyrimidin-5-yl)propanamide]
30 | < 5 µM | CC1(C(N)=O)CCc2sc3ncnc(O[C@H]4CC[C@H](N5CCOCC5)CC4)c3c2C1 (stereo partly drawn) [Compound I-237, 12-methyl-3-[[(1r,4r)-4-(morpholin-4-yl)cyclohexyl]oxy]-8-thia-4,6-diazatricyclo[7.4.0.0[2,7]]trideca-1(9),2,4,6-tetraene-12-carboxamide]
